Assays:
Experiment in all cases: Minimum Inhibitory Concentration (MIC) test / synergy testing
Format in all cases: cell-based
[1] = test system: Pseudomonas aeruginosa DSM# 939; conditions: single biocide, TSB medium pH 5, 30° C., 48 hours
Experimental: (§1) The synergism of the biocides combination of the present invention was determined using the Minimum Inhibitory (MIC) test method described by Kull, F. C., et. al in Applied Microbiology 9:538-541 (1961).
(§2) The Minimum Inhibitory Concentration Test (MIC) is designed to evaluate the lowest concentration of a biocide, biocide blend or biocide combination to prevent bacteria growing in a defined broth.
(§3) The MICs of the single biocides NaOPP and BDA as well as of combinations of these two actives (all in TSB) in 3 different ratios (1:1; 10:1, 100:1) were estimated against each of the 4 microorganisms Staphylococcus aureus (DSMZ#799), Pseudomonas aeruginosa (DSMZ#939) and Candida albicans (DSMZ#1386), Pseudomonas putida, respectively.
(§4) The synergy testing was carried out as follows: • 1. The test was executed with a Hamilton MLStarPlus robot using automated turbidity reading with BioTek Synergy H4 plate reader. • 2. Biocide systems were prepared in 2.2 ml deep well plates by transferring and diluting biocides from stock solutions to first rows of the plates. The concentrations of biocides in stock bottles were adjusted to be 20× more concentrated than the highest desired concentration. • 3. Then 15 subsequent serial dilutions with dilution factor 1.3 were performed resulting in 16 different concentrations for each system. • 4. In the next step serially diluted biocide systems were transferred to the media blocks containing 850 μl of TSB medium adjusted to pH 5. For each biocide system 100 μl was transferred to the media, resulting in 950 μl of final volume of media+biocides and 9.5 times dilution of the biocides from the biocide plate. At this point, the concentrations of all biocides in media were 1.053×final concentration. • 5. After preparation and mixing of the described systems, 4 aliquots of 190 μl were prepared in 96-well microtiter plates. • 6. Preparation of the microbe suspension:
(§5) • The culture was maintained as a glycerol stock at −80° C. in cryovials. A cryovial was thawed and then 100 μl spread on a TSA agar plate. After incubation for 1 day at 30° C. the bacteria were harvested with buffer at pH 7.3. A total viable count on TSA plate was carried out and bacterial suspension was diluted in buffer in order to deliver ˜2×10^7 CFU/ml.
(§6) • The cultures were maintained as glycerol stocks at −80° C. in cryovials, are thawed and then 100 μl spread on MEA (malt extract agar) petri dishes. • The yeast strain plates were incubated at 28° C. for 1-2 days then harvested with buffer pH 5.0. • Based on total viable count results, the inoculum was prepared. • 7. Each test sample (190 μl) was inoculated with the 10 μl of microbe suspension to provide a level of ˜1×10^6 CFU/ml of the bacteria species and ˜1×10^5 CFU/ml of the yeast species. • 8. The test samples were mixed and incubated at 30° C. for 2 days (48 hours) when tested against bacteria and 3 days (72 hours), respectively, when tested against yeast. • 9. Growth of the micro-organisms leads to turbidity after incubation, clarity indicates no growth. Reading of the results was carried out by measuring absorbance at 600 nm for each sample at the beginning of the test (tzero) and after incubation (tendpoint). tendpoint was chosen at 48 hours for bacteria and 72 hours for yeast. The difference in absorbance between tendpoint and tzero was used to assign a score (“1” if Δ>0.2, confirming growth, and “0” if Δ≤0.2, confirming no growth) from which the MIC values were derived.

Pseudomonas putida = conditions: single biocide, TSB medium pH 5, 30° C., 48 hours
Experimental: as §1, §2, §3, §4, §5, §6

[2] = test system: Staphylococcus aureus DSM# 799; conditions: single biocide, TSB medium pH 5, 30° C., 48 hours
Experimental: as §1, §2, §3, §4, §5, §6

[3] = test system: Candida albicans DSM# 1386; conditions: single biocide, TSB medium pH 5, 30° C., 72 hours
Experimental: as §1
The Minimum Inhibitory Concentration Test (MIC) is designed to evaluate the lowest concentration of a biocide, biocide blend or biocide combination to prevent bacteria growing in a defined broth. […]
The synergy testing was carried out as follows: • 1. The test was executed with a Hamilton MLStarPlus robot using automated turbidity reading with BioTek Synergy H4 plate reader. • 2. […]
• The cultures were maintained as glycerol stocks at −80° C. in cryovials, are thawed and then 100 μl spread on MEA (malt extract agar) petri dishes. • The yeast strain plates were incubated at 28° C. for 1-2 days then harvested with buffer pH 5.0. • Based on total viable count results, the inoculum was prepared. • 7. […] Reading of the results was carried out by measuring absorbance at 600 nm for each sample at the beginning of the test (tzero) and after incubation (tendpoint). tendpoint was chosen at 48 hours for bacteria and 72 hours for yeast. The difference in absorbance between tendpoint and tzero was used to assign a score (“1” if Δ>0.2, confirming growth, and “0” if Δ≤0.2, confirming no growth) from which the MIC values were derived.

Row | Compound | MIC ([1]; Pseudomonas aeruginosa, DSM939, read-out: MIC results for single biocides) [µg/mL] | MIC (Pseudomonas putida; Pseudomonas putida, read-out: MIC results for single biocides) [µg/mL] | MIC ([2]; Staphylococcus aureus, DSM799, read-out: MIC results for single biocides) [µg/mL] | MIC ([3]; Candida albicans, DSM1386, read-out: MIC results for single biocides) [µg/mL] | MIC results for single biocides [1] [ppm] | MIC results for single biocides (Pseudomonas putida) [ppm] | MIC results for single biocides [2] [ppm] | MIC results for single biocides [3] [ppm]
1 | CCCCCCCCCCCCN(CCCN)CCCN [BDA, bis-(3-aminopropyl)dodecylamine] | 200 | 200 | 91 | ≥ 260 | – | – | – | –
2 | [Na+].[O-]c1ccccc1-c1ccccc1 [NAOPP, sodium ortho-phenylphenate] | – | – | – | – | 167 | 283 | 129 | 167

— patent US20190364890A1, “SYNERGISTIC COMBINATION OF ORTHO-PHENYLPHENOL AND BIS-(3-AMINOPROPYL)DODECYLAMINE” (Dow Global Technologies LLC, priority 2016, published 2019)
